Test results reported in PMC9739780, “Pharmacokinetic Comparison of Eight Major Compounds of Lonicerae japonicae flos after Oral Administration in Normal Rats and Rats with Liver Injury” (Molecules, 2022).

Assays:
[1] = Pharmacokinetics after oral administration of LJF extract in CCl4-induced liver injury model rats; format: in vivo, Sprague-Dawley rats; conditions: for AUC(0-inf) / AUC(0-t) / Cmax / MRT inf / MRT last / Tmax / half-life: male, Sprague-Dawley
Method: Intraperitoneal injection of CCl4 was used to induce liver injury in rats, and the successful establishment of the model was measured by detecting ALT and AST in rat plasma.
(§1) This method has been successfully applied to study the pharmacokinetics of LJF orally in normal rats and acute liver injury rats. The pharmacokinetic parameters were analyzed using the […] model analysis on the DAS 2.0 platform. The mean plasma concentration–time curves of 3-CQA, 4-CQA, 5-CQA, 3,5-diCQA, 4,5-diCQA, PA, Secoxyloganin, and Sweroside are shown in Figure 4. Pharmacokinetic parameters included: Cmax, Tmax, area under the concentration–time curve (AUC0–t), AUC0–∞, MRT0–t, and MRT0–∞, as shown in Table 6 and Figure 4.
(§2) […] male Sprague-Dawley rats with body weights of 250 ± 20 g were purchased from the Experimental Animal Center of Heilongjiang University of Chinese Medicine and fed in the SPF animal laboratory, under a standard room temperature of 25 ± 2 °C, relative humidity of 50 ± 15%, and a 12 h light/12 h dark cycle. The experiment followed the ethical norms of experimental animals of Heilongjiang University of Chinese Medicine (License number: SCXK (Hei) 2021-004). Twelve rats were randomly divided into normal and model groups of six rats each. After intraperitoneal injection of CCl4 (0.06 mL/kg) for 24 h, blood samples were collected into heparinized tubes via the orbital vein, centrifuged at 2000 r/min for 20 min, and the levels of AST and ALT in serum were determined by the microplate method.
(§3) The pharmacokinetic properties and parameters of 3-CQA, 4-CQA, 5-CQA, 3,5-diCQA, 4,5-diCQA, PA, Secoxyloganin, and Sweroside in rats were studied after oral administration of the LJF extract. […] The supernatant plasma was then transferred to a 1.5 mL centrifuge tube and stored at −20 °C for later use.
(§4) Here, 100 μL aliquots of the plasma sample were thawed and pipetted into centrifuge tubes and 10 μL of chloramphenicol solution (500 ng/mL) and daidzein solution (500 ng/mL) were added, respectively, and 780 μL of methanol was added to precipitate for 5 min. Then, the supernatant was centrifuged for 5 min at 12,000 rp/min. The supernatant was transferred to a nitrogen blowing machine and dried at 40 °C. The residue was reconstituted in 100 μL of 50% methanol, and the sample was filtered through the membrane and then injected into the UPLC-MS/MS system.
(§5) DAS 2.0 software was used to calculate the pharmacokinetic parameters of the […] model, including Cmax, Tmax, AUC0–t, AUC0–∞, MRT0–t, MRT0–∞, and t1/2. The statistical software GraphPad Prism 5.0 was used for graph plotting and statistical analysis of drug duration curves.

[2] = Pharmacokinetics after oral administration of LJF extract in normal rats; format: in vivo, Sprague-Dawley rats
Method: as §1, §2, §3, §4, §5

[3] = male, Sprague-Dawley, rat, in vivo, po, 15.75 g/kg
[4] = rat, liver injury model group (M, CCl4), oral LJF ethanol extract 15.75 g/kg, plasma, mean ± SD, n = 6, read-out: AUC0–t
[5] = rat, liver injury model group (M, CCl4), oral LJF ethanol extract 15.75 g/kg, plasma, mean ± SD, n = 6, read-out: AUC0–∞
[6] = rat, liver injury model group (M, CCl4), oral LJF ethanol extract 15.75 g/kg, plasma, mean ± SD, n = 6, read-out: Cmax
[7] = rat, liver injury model group (M, CCl4), oral LJF ethanol extract 15.75 g/kg, plasma, mean ± SD, n = 6, read-out: MRT0–t
[8] = rat, liver injury model group (M, CCl4), oral LJF ethanol extract 15.75 g/kg, plasma, mean ± SD, n = 6, read-out: MRT0–∞
[9] = rat, liver injury model group (M, CCl4), oral LJF ethanol extract 15.75 g/kg, plasma, mean ± SD, n = 6, read-out: Tmax
[10] = rat, liver injury model group (M, CCl4), oral LJF ethanol extract 15.75 g/kg, plasma, mean ± SD, n = 6, read-out: t1/2 (converted)
[11] = result in words, oral LJF extract, rat plasma
[12] = male, Sprague-Dawley, rat, normal group (N), oral LJF ethanol extract 15.75 g/kg, plasma, mean ± SD, n = 6, read-out: AUC0–t
[13] = male, Sprague-Dawley, rat, normal group (N), oral LJF ethanol extract 15.75 g/kg, plasma, mean ± SD, n = 6, read-out: AUC0–∞
[14] = male, Sprague-Dawley, rat, normal group (N), oral LJF ethanol extract 15.75 g/kg, plasma, mean ± SD, n = 6, read-out: Cmax
[15] = male, Sprague-Dawley, rat, normal group (N), oral LJF ethanol extract 15.75 g/kg, plasma, mean ± SD, n = 6, read-out: MRT0–t
[16] = male, Sprague-Dawley, rat, normal group (N), oral LJF ethanol extract 15.75 g/kg, plasma, mean ± SD, n = 6, read-out: MRT0–∞
[17] = male, Sprague-Dawley, rat, normal group (N), oral LJF ethanol extract 15.75 g/kg, plasma, mean ± SD, n = 6, read-out: Tmax
[18] = male, Sprague-Dawley, rat, normal group (N), oral LJF ethanol extract 15.75 g/kg, plasma, mean ± SD, n = 6, read-out: t1/2 (converted)

Compound | AUC(0-inf) ([1]; rat, in vivo, po, 15.75 g/kg) [ng·h/mL] | AUC(0-t) ([1]; rat, in vivo, po, 15.75 g/kg) [ng·h/mL] | AUC(0-t) [1, 4] [ng·h/mL] | AUC(0-inf) [1, 5] [ng·h/mL] | Cmax [1, 6] [ng/mL] | MRT last [1, 7] [h] | MRT inf [1, 8] [h] | Tmax [1, 9] [h] | half-life [1, 10] [h] | AUC0–t, model group compared with the normal group [1, 11] | AUC0–∞, model group compared with the normal group [1, 11] | Cmax, model group compared with the normal group [1, 11] | Tmax, model group compared with the normal group [1, 11] | AUC(0-t) [2, 12] [ng·h/mL] | AUC(0-inf) [2, 13] [ng·h/mL] | Cmax [2, 14] [ng/mL] | MRT last [2, 15] [h] | MRT inf [2, 16] [h] | Tmax [2, 17] [h] | half-life [2, 18] [h] | further results
C=C[C@H]1[C@H](O[C@@H]2O[C@H](CO)[C@@H](O)[C@H](O)[C@H]2O)OC=C(C(=O)OC)[C@H]1CC(=O)O [Secoxyloganin] | 17100 | 15000 | – | – | – | – | – | – | – | – | – | – | – | – | – | – | – | – | – | – | Cmax ([1]; rat, in vivo, po, 15.75 g/kg): 4150 ± 377 ng/mL; MRT inf ([1]; rat, in vivo, po, 15.75 g/kg): 18.2 ± 2.24 h; MRT last ([1]; rat, in vivo, po, 15.75 g/kg): 8.74 ± 0.58 h; Tmax ([1]; rat, in vivo, po, 15.75 g/kg): 0.29 ± 0.102 h; half-life ([1]; rat, in vivo, po, 15.75 g/kg): 23.6 ± 3.48 h; Cmax, model group compared with the normal group ([1]; rat, in vivo, po): significantly higher; MRT0–∞, model group compared with the normal group ([1]; rat, in vivo, po): significantly higher; Tmax, model group compared with the normal group ([1]; rat, in vivo, po): significantly lower; AUC(0-inf) [2, 3]: 7610 ± 4120 ng·h/mL; AUC(0-t) [2, 3]: 6230 ± 1070 ng·h/mL; Cmax [2, 3]: 1510 ± 331 ng/mL; MRT inf [2, 3]: 12.4 ± 1.04 h; MRT last [2, 3]: 11.9 ± 1.69 h; Tmax [2, 3]: 0.46 ± 0.102 h; half-life [2, 3]: 16.1 ± 19.1 h
O=C(/C=C/c1ccc(O)c(O)c1)O[C@@H]1[C@H](O)C[C@@](O)(C(=O)O)C[C@@H]1O (stereo in doubt) [4-CQA, 4-caffeoylquinic acid] | – | – | 5970 ± 1800 | 6810 ± 1140 | 2370 ± 425 | 10.1 ± 1.06 | 29.7 ± 24.8 | 0.14 ± 0.043 | 42.2 ± 31.7 | increased | increased | increased | significantly decreased | 2170 ± 616 | 2340 ± 569 | 1110 ± 448 | 9.65 ± 1.72 | 14.7 ± 4.18 | 0.208 ± 0.0457 | 15.2 ± 5.24 | –
C=C[C@H]1[C@H](O[C@@H]2O[C@H](CO)[C@@H](O)[C@H](O)[C@H]2O)OC=C2C(=O)OCC[C@H]21 [Sweroside] | 16700 | 16000 | – | – | – | – | – | – | – | – | – | – | – | – | – | – | – | – | – | – | Cmax ([1]; rat, in vivo, po, 15.75 g/kg): 2364.23 ± 440 ng/mL; MRT inf ([1]; rat, in vivo, po, 15.75 g/kg): 13.7 ± 1.33 h; MRT last ([1]; rat, in vivo, po, 15.75 g/kg): 11.3 ± 0.48 h; Tmax ([1]; rat, in vivo, po, 15.75 g/kg): 0.67 ± 0.26 h; half-life ([1]; rat, in vivo, po, 15.75 g/kg): 11.8 ± 1.51 h; AUC0–∞, model group compared with the normal group ([1]; rat, in vivo, po): significantly higher; Cmax, model group compared with the normal group ([1]; rat, in vivo, po): increased compared with that in the normal group, but there was no significant difference; AUC(0-inf) [2, 3]: 10000 ng·h/mL; AUC(0-t) [2, 3]: 9690 ± 1410 ng·h/mL; Cmax [2, 3]: 1930 ± 609 ng/mL; MRT0–t [2, 3]: 12.29 ± 1.14 h; MRT inf [2, 3]: 13.9 ± 1.86 h; Tmax [2, 3]: 0.53 ± 0.38 h; half-life [2, 3]: 9.78 ± 2.87 h
O=C(/C=C/c1ccc(O)c(O)c1)O[C@@H]1C[C@](O)(C(=O)O)C[C@@H](O)[C@H]1O [5-CQA, 5-caffeoylquinic acid] | – | – | 3570 ± 686 | 3970 ± 712 | 1120 ± 316 | – | 20.9 ± 8.54 | – | 18.9 ± 18.4 | increased | increased | increased | not significantly different | – | – | 266 ± 102 | 18 ± 2.34 | 21.4 ± 2.86 | – | 17.9 ± 9.97 | MRT0–t ([1]; liver injury model group (M, CCl4), oral LJF ethanol extract 15.75 g/kg, plasma, mean ± SD, n = 6): 11.08 ± 2.42 h; Tmax ([2]; normal group (N), oral LJF ethanol extract 15.75 g/kg, plasma, mean ± SD, n = 6): 0.24 ± 0.03405 h
O=C(/C=C/c1ccc(O)c(O)c1)O[C@H]1C[C@](O)(C(=O)O)C[C@@H](O)[C@H]1O [3-CQA, 3-caffeoylquinic acid] | – | – | 16400 | 17400 | 6290 ± 1260 | 13.4 ± 1.67 | 23.3 ± 11.2 | 0.19 ± 0.043 | 12.2 ± 3.12 | significantly increased | significantly increased | increased but there was no significant difference | – | 12100 | 13100 | 5110 ± 1220 | 13.9 ± 1.31 | 18.2 ± 1.94 | 0.208 ± 0.0457 | 12.9 ± 0.765 | –
O=C(O)c1ccc(O)c(O)c1 [PA, protocatechuic acid] | – | – | 219 ± 59.1 | 547 ± 209 | 23 ± 2.97 | 26.6 ± 2.13 | 49.8 ± 28.9 | 0.18 ± 0.034 | 25.5 ± 17 | – | increased | – | reached the peak earlier | 198 ± 37 | 292 ± 26 | 22.6 ± 8.36 | 23.2 ± 0.86 | 44.1 ± 16.9 | 0.33 ± 0.13 | 24.8 ± 12.8 | clearance rate, model group compared with the normal group ([1]; result in words, oral LJF extract): decreased; MRT0–t, model group compared with the normal group [1, 11]: prolonged
